Assay results: US20240398736A1, “Eyedrops for Treating Scleral Thinning and Screening Method for Therapeutic Agent of Scleral Thinning” (Tsubota Laboratory, Inc., priority 2020, published 2024)
Entries after “also recorded” stand apart in the source; their conditions may differ. Like-named read-outs stand apart in the source and are kept apart here. One block for each compound: values may come before it.

How the values were obtained:
[1] = system: myopia-induced mouse; test: Eyedrop administration of UPR inhibitors during myopia induction in mouse: axial elongation and refraction (Test Example 2); type: in vivo; settings: eyedrop once a day for 10 days during myopia induction; 100 μM each (STF 60 μM); -30 D lens eye
Experimental: Specifically, a myopia-induced mouse is produced as follows.
During the myopia induction, 60 μM STF080312 (STF), 100 μM 4μ8C (4μ8C), 100 μM GSK2656157 (GSK), 100 μM GSK2606414 (GSK2606414), 100 μM Nelfinavir Mesylate hydrate (NFV), or 100μM Ceapin-A7 (Ceapin) was eye-dropped to both eyes once a day every day in the evening for 10 days.
It is said that increase of expression of URP gene pathway is a cause of pathologic axial elongation and scleral thinning in high myopia (Patent Literature 1). Therefore, in this Test Example 2, it was evaluated, in the sclera of a myopia-induced mouse in which scleral thinning had been caused, how the phenotype of axial elongation was affected by a known URP gene inhibitor. It is noted that GSK2656157 (GSK) and GSK2606414 were used as the PERK inhibitor, Nelfinavir Mesylate hydrate (NFV) and Ceapin-A7 were used as the ATF6 inhibitor, and STF080312 (STF) and 4μ8C were used as the IRE1 inhibitor (FIG. 4).
In accordance with the test method described above, the axial elongation caused in using each of the various gene inhibitors in a myopia-induced mouse was evaluated (FIG. 4).
FIGS. 5a and 5b illustrate axial elongation (a) and refraction change (b) obtained after eyedrop administration of 60 μM STF, 100 μM GSK, or 100 μM NFV once a day for 10 days during the myopia induction period of the mouse. Besides, FIGS. 5c and 5d illustrate axial elongation (a) and refraction change (b) obtained after similarly eyedrop administration of a combination of these inhibitors (STF+GSK:S+G, GSK+NFV:G+N, NFV+STF:N+S, or STF+GSK+NTF:S+G+N). Besides, FIG. 6 illustrates axial elongation (a) and refraction change (b) obtained after similarly eyedrop administration of 100 μM GSK2606414, Ceapin-A7, or 4μ8C.

[2] = system: myopia-induced mouse; test: Intraperitoneal injection of 4-PBA or TUDCA during myopia induction in mouse: axial elongation and refraction (Test Example 3)
Experimental: Specifically, a myopia-induced mouse is produced as follows. It is noted that myopia induction, and measurement of an axial length and refraction were performed by methods similar to those described in Non Patent Literatures 6 and 7. First, a male C57BL6J mouse was put in a standard transparent cage under a 12/12 h light/dark cycle in a temperature controlled clean room. The animal was allowed to free access to standard feed and autoclaved tap water. A 3-week-old mouse immediately after weaning was anesthetized with a mixed anesthetic of three anesthetics, that is, Domitor (Nippon Zenyaku Kogyo Co., Ltd.), Butorphanol (Meiji Seika Pharma Co., Ltd.), and Midazolam (Sandoz K. K.), and the skull was exposed with scissors. As illustrated in FIG. 1(b), a post was provided to stand on the skull, and fixed with dental cements (Super-Bond, Sun Medical Company, Ltd.). The post was provided with a screw thread so that an adjustor described below could be fixed thereon with a nut.
For inducing myopia, a minus lens having a power of −30 diopters (D) (Rainbow Contact, RAINBOW OPTICAL LABORATORY CO., LTD.) was worn on the right eye (myopia-induced eye), and a lens having a power of 0 D or only a frame was worn as a control on the left eye (control eye). […] The protector used here was attached to be integral with the frame portion, but the protector needs not be integral with the lens as long as the lens is not damaged by the behavior of the mouse.
Sodium phenylbutyrate (Cayman Chemical, MI, USA) and tauroursodeoxycholic acid (Sigma Aldrich, Tokyo, Japan) were dissolved in PBS. STF080310 (Selleck Biotech, Tokyo, Japan) or 4μ8C (Selleck Biotech) of an IRE1 inhibitor, GSK2656157 (Selleck Biotech) or GSK2606414 (Selleck Biotech) of a PERK inhibitor, and Nelfinavir Mesylate hydrate (Tokyo Chemical Industry Co., Ltd.) or Ceapin-A7 (Sigma Aldrich) of an ATF6 inhibitor were dissolved in DMSO, and the resultant was diluted to 1:1000 with PBS to be used in an eyedrop test.
(§1) A solution of sodium phenylbutyrate in PBS (4-PBA; 200 mg/kg) or tauroursodeoxycholic acid (TUDCA; 100 mg/kg) was intraperitoneally injected (i.p.) every day during the myopia induction period.

[3] = system: PERK pathway and ATF6 pathway
Experimental: as §1
(§2) Quantitative real-time PCR was performed using StepOnePlus Realtime PCR system with PowerUp SYBR Green Master Mix (Applied Biosystems, CA, USA). Expression level was standardized using B-actin.

[4] = for 4-PBA Concentration, Choroid / 4-PBA Concentration, Plasma / 4-PBA Concentration, Retina (right) / 4-PBA Concentration, Sclera: 200 mg/kg intraperitoneally for 1 week
Experimental: Pharmacokinetics in the eye tissue obtained by systemic administration of 4-PBA was confirmed. A specific test method was as follows.
4-PBA (200 mg/kg) was intraperitoneally administered for 1 week. One hour after the last administration, the eyeball was excised, and respective tissues were separated. Tissues from 16 mice (32eyeballs) were pooled to be used as 1 sample, and frozen with liquid nitrogen to be stored until measurement. Before the measurement by LC-MS/MS, a 9-fold weight of methanol/water (1:1, v/v) was added thereto for homogenization, and the resultant was centrifuged (10000×g, 4°° C., 5 minutes) to use a supernatant in analysis.
As a standard reagent, 4-phenylbutyric acid (Tokyo Chemical Industry Co., Ltd.) was used, and LC-MS/MS (LC-20AD system: Shimadzu Corporation, API4000: SCIEX, Tokyo, Japan), and HPLC column, Atlantis dc18 (5 μm, 2.1 mm ID×150 mm, Waters) were used. As a mobile phase, formic acid/water (1:10000, v/v) and acetonitrile were used, and during the analysis, the gradient of each mobile phase was maintained at 50%. A sample injection amount was set to 10 μL, a column temperature was set to 50° C., and a flow rate was set to 0.2 mL/min.
As mass spectrometry (MS) conditions, negative mode electrospray ionization (ESI) was employed, and ion was measured by multiple reaction monitoring (MRM).

[5] = system: myopia-induced mouse; settings: 2% 4-PBA eye-dropped every day after myopia induction
Experimental: A solution of 2% sodium phenylbutyrate in PBS (4-PBA) was eye-dropped to both eyes of a myopia induced mouse once a day every day in the evening for 10 days after completing the myopia induction period corresponding to human adulthood. It is noted that administration schedule during the myopia induction period (LIM) and after completing the period is schematically illustrated in FIG. 11.
It was evaluated whether or not axial elongation is inhibited by eyedrop administration of 4-PBA after the myopia induction period (6 weeks old to 8 weeks old), namely, in a period, corresponding to adulthood in a human, when a posterior segment eye disorder is caused by scleral thinning (FIG. 11) differently from the eyedrop administration in the myopia induction period (3 weeks old to 6 weeks old) in a mouse model simulating myopia progression in childhood as described in Patent Literature 1.

[6] = system: scleral collagen fibers
Experimental: After experimental intervention and eye parameter measurement, the eyeball was excised from the C57BL6J mouse. For transmission electron microscopic observation, the eyeball of the mouse was fixed in ice-cooled 2.5% glutaraldehyde in PBS for 1 hour, and then was cut along the sagittal plane. The cornea and the lens were excised, and the remaining tissue was further fixed in 2.5% glutaraldehyde/60 mM HEPES buffer (pH 7.4) overnight. The resultant specimen was washed with 60 mM HEPES buffer, and was then incubated in 1% tetroxide osmium/60 mM HEPES buffer at 4° C. for 2 hours, and the resultant was dehydrated through ethanol series, exchanged and embedded in Epon 812 (EM Japan, Tokyo, Japan). After the embedding, the resultant block was sliced into 70 nm, and stained with uranyl acetate and lead citrate. The resultant section was visualized with JEM-1400Plus (JEOL LTD., Tokyo, Japan).
The sclera is a tissue mainly containing collagen, and it is said that collagen fiber narrowing is involved in scleral thinning (see Non Patent Literature 5).

[7] = system: myopia-induced juvenile mouse; settings: -30 D lens wearing group
Experimental: It was examined whether or not a difference in the dosage form of 4-PBA affects the change in the lens. In accordance with the description given above in “Experimental Method”, 4-PBA was eye-dropped or intraperitoneally administered to a myopia-induced juvenile mouse, and the thickness of the lens was measured with SD-OCT in the same manner as in the measurement of the axial length.

[8] = system: collagen 1A1 (COL1A1); settings: 2% 4-PBA eyedrop
Experimental: A protein (10 μg/well) of the sclera was separated by SDS-PAGE, transferred onto a PVDF membrane (Merck Millipore, MA, USA), blocked with Blocking One (Nacalai Tesque, Tokyo), and incubated together with anti-ATF6 (BioAcademia), phosphorylation-IRE1 (Ser724, Abcam, Cambridge, UL), IRE1, phosphorylation-eIF2α, eIF2α, and β-actin (Cell Signaling Technologies Japan, Tokyo, Japan) antibodies at 4° C. overnight. The resultant membrane was incubated with an appropriate HRP-bound secondary antibody, and the resultant was visualized with EzWestLumi plus (ATTA, Tokyo, Japan). SDS-PAGE was performed in a 10% acrylamide gel with a protein size marker (Magic Mark XP Western Protein Standard, ThermoFisher Scientific). The concentration measurement and analysis was performed using Image J software.
as §2
4-PBA was administered by eyedrop to a mouse myopia induction model to confirm its influence on collagen 1A1 (COL1A1) and the like corresponding to principal collagens for maintaining the shape of the eyeball. A specific test method was as follows.
PBS (Veh) or 2% 4-PBA was eye-dropped to a myopia-induced mouse, and collagen 1A1 in the sclera (n=7) was evaluated by Western blotting method, and expression of collagen-related mRNA was evaluated by quantitative PCR.

[9] = TUDCA 100 mg/kg intraperitoneal injection during myopia induction
[10] = 4-PBA 200 mg/kg/day intraperitoneal injection, 1st week and 3rd week of myopia induction (LIM)

Compound: Cc1cc(=O)oc2c(C=O)c(O)ccc12 [4μ8C]
axial elongation of myopia-induced eye [1]: neither axial elongation nor myopic refraction was inhibited
myopic refraction of myopia-induced eye [1]: neither axial elongation nor myopic refraction was inhibited

Compound: O=C(Nc1cnn(Cc2ccc(C(F)(F)F)cc2C(F)(F)F)c1)c1cc(-c2ccco2)on1 [Ceapin-A7]
axial elongation of myopia-induced eye [1]: neither axial elongation nor myopic refraction was inhibited
myopic refraction of myopia-induced eye [1]: neither axial elongation nor myopic refraction was inhibited

Compound: Cn1cc(-c2ccc3c(c2)CCN3C(=O)Cc2cccc(C(F)(F)F)c2)c2c(N)ncnc21 [GSK2606414]
axial elongation of myopia-induced eye [1]: neither axial elongation nor myopic refraction was inhibited
myopic refraction of myopia-induced eye [1]: neither axial elongation nor myopic refraction was inhibited

Compound: C[C@H](CCC(=O)NCCS(=O)(=O)O)[C@H]1CC[C@H]2[C@@H]3[C@@H](O)C[C@@H]4C[C@H](O)CC[C@]4(C)[C@H]3CC[C@]12C [TUDCA, tauroursodeoxycholic acid]
axial elongation (pathologic, myopia-induced eye) [2, 9]: pathologic axial elongation alone was inhibited; also recorded: the axial elongation is inhibited
myopic refraction [2, 9]: the myopic refraction is inhibited
physiological axial elongation ([2]; mouse, in vivo): physiological axial elongation was not inhibited

4-PBA Concentration, Choroid ([4]; 15 min after administration): 348 ng/g or ng/mL
4-PBA Concentration, Plasma ([4]; 15 min after administration): 394 ng/g or ng/mL
4-PBA Concentration, Retina (right) ([4]; 15 min after administration): 349 ng/g or ng/mL
4-PBA Concentration, Sclera ([4]; 15 min after administration): 203 ng/g or ng/mL
4-PBA Concentration, Choroid ([4]; 30 min after administration): 117 ng/g or ng/mL
4-PBA Concentration, Plasma ([4]; 30 min after administration): 186 ng/g or ng/mL
4-PBA Concentration, Retina (right) ([4]; 30 min after administration): 88.2 ng/g or ng/mL
4-PBA Concentration, Sclera ([4]; 30 min after administration): 107 ng/g or ng/mL
4-PBA Concentration, Choroid ([4]; 60 min after administration): 76.7 ng/g or ng/mL
4-PBA Concentration, Plasma ([4]; 60 min after administration): 76.2 ng/g or ng/mL
4-PBA Concentration, Retina (right) ([4]; 60 min after administration): 27.9 ng/g or ng/mL
4-PBA Concentration, Sclera ([4]; 60 min after administration): 44.9 ng/g or ng/mL
detection of 4-PBA in the retina, the choroid and the sclera ([4]; intraperitoneally administered): detected
Compound: sodium phenylbutyrate [4-PBA]
UPR gene expression in the sclera (increase in myopia induced eyes) ([3]; 4-PBA 200 mg/kg/day administered, quantitative PCR): the increase is inhibited by 4-PBA
expression of genes disposed downstream of the PERK pathway and the ATF6 pathway ([3]; eyedrop administration of 2% 4-PBA, FIG. 7): significantly inhibited
myopic refraction after completing the myopia induction [5]: tended to be inhibited
adulthood axial elongation after completing the myopia induction ([5]; 1st and 3rd weeks): tended to inhibit
axial elongation [2, 10]: the axial elongation is inhibited
myopic refraction [2, 10]: the myopic refraction is inhibited
narrowing of collagen fibers in the sclera ([6]; 4-PBA administered every day over the myopia-induced period, TEM, FIG. 10a): the narrowing of collagen fibers in the sclera was inhibited
scleral collagen fiber cross-sectional area profile ([6]; eyedrop administration of 2% 4-PBA, FIG. 10b): the area profile was restored to the original one
lens thickening through myopia induction (LIM) ([7]; 4-PBA administered by eyedrop): lens thickening was not caused
lens thickening through myopia induction (LIM) ([7]; intraperitoneal administration of 4-PBA): did not affect lens thickening
collagen 1A1 (COL1A1) protein in the sclera (reduction induced by myopia) ([8]; Western blotting): can be cancelled
collagen 1A1 (COL1A1) mRNA in the sclera (reduction induced by myopia) ([8]; quantitative PCR): can be cancelled
mRNAs of Col4a3, Col8a2, Col11a2, and Col15a1 in the sclera (increase by myopia induction) ([8]; quantitative PCR): the increase was cancelled
